Laboratory results from US11117901B2, “Substituted pyrazolo[4,3-h]quinazolines as choline kinase inhibitors” (NERVIANO MEDICAL SCIENCES S.R.L., priority 2017, dated 2021).

Legend:
[1] = molecular target: T1, Δ49N-hChoKα (Homo sapiens, UniProt P35790); assay: Biochemical kinase inhibition assay (Kinase-Glo luminescent) on Δ49N-hChoKα; settings: recombinant Δ49N-hChoKα 2.2 nM, ATP 5 μM, choline 5 μM, 60 min rt; read-out: ChoKα IC50
T1 construct: cDNA fragment 362-1534, corresponding to aminoacids 50 457; GST (N, cleaved yes); PreScission Protease recognition site (N); made in house; host or cells: Escherichia coli BL21pLysS (DE3)
Experimental: (§1) HumanΔ49ChoKα ([…]Δ49N-hChoKα) cDNA fragment 362-1534, corresponding to aminoacids 50 457 (J. Mol. Biol. 2006, 364, 136-151), and hChoKβ full length (FL), corresponding to aminoacids 2-395 ((PLoS ONE 2009, 4, e7819), were amplified by PCR from human library and cloned, inserting upstream a Prescission Protease recognition site, in pDonor 221 vector, using the Gateway Technology® (Invitrogen). After sequence control, LR reaction was performed in the final expression pGEX 2Tg vector. Both the proteins were expressed in Escherichia coli BL21pLysS (DE3) strain in auto-induction (Kessler) medium in the presence of […] carbenicillin at 25° C. for 16 h. Cells were harvested by centrifugation, the pellet was re-suspended in Lysis buffer (50 mM Tris-HCl pH 7.8, 150 mM NaCl, 10% glycerol, 0.2% CHAPS, 20 mM DTT, Protease Inhibitor Cocktail Tablets from Roche Biochemicals) and lysed by Gaulin homogenizer (Niro Soavi). The lysate was cleared by centrifugation. The supernatant was added to GSH resin and let flow by gravity. The GSH resin was washed with 5 column volume (CV) of cold wash buffer (50 mM Tris-HCl pH 7.8, 150 mM NaCl, 10% glycerol), then with 10 CV of the same buffer containing 2 mM of DTT. Both GST-Δ49N-hChoKα and hChoKβ were subjected to on-column cleavage of the GST tag with Prescission Protease overnight. The eluted cleaved proteins were further purified by ion exchange (ResQ 6 mL chromatography column from GE healthcare) with a gradient from 50 to 500 mM NaCl in 30 CV. The fractions containing […]Δ49N-hChoKα or hChoKβ were pooled, concentrated and gel filtered on a Superdex200 16/60 (GE Healthcare). The final protein concentration was estimated using the Bradford assay. All the samples purified were resolved by SDS-PAGE.
(§2) Biochemical Kinase inhibition Assay on Δ49N-hChoKα and hChoKβFL
(§3) The biochemical activity of compounds against Δ49N-ChoKα and ChoK3 FL were determined using the Kinase-Glo™ Luminescent Kinase Assay (Promega cat. V6711). The assay is based on incubation of the recombinant Δ49N-hChoKα and hChoKβ FL produced in house, 2.2 nM and 30 nM, respectively, with the specific substrates, choline (Sigma-Aldrich-C7017) and ATP, followed by quantification, at the end of reaction time, of the residual not reacted ATP.
(§4) Compounds were 3-fold serially diluted from 10 to 0.0005 μM, then incubated for 60 minutes at room temperature in the presence of ATP 5 μM, choline (5 μM for ChoKα and 20 μM for ChoKβ) and enzyme in a final volume of 19 μL of kinase buffer (50 mM Hepes pH 7.5, 10 mM MgCl2, 1 mM DTT, 3 μM Na3VO4 and 0.2 mg/mL BSA). The final concentration of DMSO was 1%. The assay was run in a robotized format on 384-well plates (Perkin Elmer cat. #6005301).
(§5) At the end of the incubation, an amount of 19 μL of KinaseGlo Reagent was added to each well to stop the reaction and after 30 minutes the luminescence signal was measured using ViewLux reader (Perkin Elmer).
(§6) All information about plate dilution, distribution and raw data of inhibition are tracked via barcode reading and stored in an Oracle DB. The data per each molecule are analyzed by an internally customized version of the SW package “Assay Explorer” which provides sigmoidal fittings of the ten-dilution curves for IC50 determination using a 4 parameter logistic equation: y=bottom+(top−bottom)/(1+10^((log IC50−x)*slope)) where x is the logarithm of the inhibitor concentration, y is the response; y starts at bottom and goes to top with a sigmoid shape.

[2] = molecular target: T2, hChoKβ FL (Homo sapiens, UniProt Q9Y259); assay: Biochemical kinase inhibition assay (Kinase-Glo luminescent) on hChoKβ FL; settings: recombinant hChoKβ FL 30 nM, ATP 5 μM, choline 20 μM, 60 min rt; read-out: ChoKβ IC50
T2 construct: hChoKβ full length (FL), corresponding to aminoacids 2-395; GST (N, cleaved yes); PreScission Protease recognition site (N); made in house; host or cells: Escherichia coli BL21pLysS (DE3)
Experimental: as §1, §2, §3, §4, §5, §6

T2 sequence (Q9Y259 2-395): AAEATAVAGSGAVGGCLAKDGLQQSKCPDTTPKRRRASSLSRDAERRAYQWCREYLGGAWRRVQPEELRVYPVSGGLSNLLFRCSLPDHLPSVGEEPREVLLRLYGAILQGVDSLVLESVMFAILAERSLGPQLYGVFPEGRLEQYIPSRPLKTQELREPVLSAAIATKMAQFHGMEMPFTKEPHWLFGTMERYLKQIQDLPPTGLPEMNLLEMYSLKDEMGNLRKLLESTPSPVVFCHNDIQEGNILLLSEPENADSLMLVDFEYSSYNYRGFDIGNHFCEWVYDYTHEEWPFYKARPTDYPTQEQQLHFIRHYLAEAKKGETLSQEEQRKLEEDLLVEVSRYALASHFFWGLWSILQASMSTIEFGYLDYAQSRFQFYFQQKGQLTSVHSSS
T1 sequence (P35790 50-439 isoform P35790-2): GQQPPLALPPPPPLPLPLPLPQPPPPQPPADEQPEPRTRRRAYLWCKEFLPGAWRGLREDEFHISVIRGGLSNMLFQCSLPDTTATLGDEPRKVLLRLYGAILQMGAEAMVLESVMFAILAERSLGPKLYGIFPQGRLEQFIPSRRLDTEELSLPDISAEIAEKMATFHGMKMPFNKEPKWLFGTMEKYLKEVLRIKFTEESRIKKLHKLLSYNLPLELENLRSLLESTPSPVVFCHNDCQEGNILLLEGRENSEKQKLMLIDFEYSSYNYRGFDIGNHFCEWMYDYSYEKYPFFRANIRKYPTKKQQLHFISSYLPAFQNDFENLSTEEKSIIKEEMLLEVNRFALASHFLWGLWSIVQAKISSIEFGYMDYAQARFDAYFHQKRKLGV

## Cn1nc(C(=O)Nc2cccc(CN3CCC(N4CCCCC4)CC3)c2)c2c1-c1nc(N)ncc1CC2(C)C [compound 109]
[1]
  IC50: 431 nM
[2]
  IC50: > 10000 nM

## CC1(C)Cc2cnc(N)nc2-c2[nH]nc(C(=O)Nc3cccc(CN4CCC(N5CCCCC5)CC4)c3)c21 [compound 110]
[1]
  IC50: 135 nM
[2]
  IC50: 2850 nM

## CC1CCN(C2CCN(Cc3cccc(NC(=O)c4nn(C)c5c4C(C)(C)Cc4cnc(N)nc4-5)c3)CC2)CC1 [compound 111]
[1]
  IC50: 640 nM
[2]
  IC50: > 10000 nM

## CC1CCN(C2CCN(Cc3cccc(NC(=O)c4n[nH]c5c4C(C)(C)Cc4cnc(N)nc4-5)c3)CC2)CC1 [compound 112]
[1]
  IC50: 187 nM
[2]
  IC50: 2130 nM

## CC(C)(C)OC(=O)NC1CCN(Cc2cccc(NC(=O)c3n[nH]c4c3C(C)(C)Cc3cnc(N)nc3-4)c2)CC1 [compound 114]
[1]
  IC50: 562 nM
[2]
  IC50: 2390 nM

## CN(C)[C@@H]1CCN(C(=O)Cc2csc(NC(=O)c3n[nH]c4c3C(C)(C)Cc3cnc(N)nc3-4)n2)C1 [compound 116]
[1]
  IC50: 4 nM
[2]
  IC50: 77 nM

## CN(C)C1CCN(Cc2ccc(NC(=O)c3nn(C)c4c3C(C)(C)Cc3cnc(N)nc3-4)cc2)CC1 [compound 117]
[1]
  IC50: 16 nM
[2]
  IC50: > 10000 nM

## CN(C)C1CCN(Cc2ccc(NC(=O)c3n[nH]c4c3C(C)(C)Cc3cnc(N)nc3-4)cc2)CC1 [compound 118]
[1]
  IC50: 33 nM
[2]
  IC50: 72 nM

## CNC1CCN(C(=O)Cc2csc(NC(=O)c3n[nH]c4c3C(C)(C)Cc3cnc(N)nc3-4)n2)CC1 [compound 119]
[1]
  IC50: 53 nM
[2]
  IC50: 66 nM

## CC1(C)Cc2cnc(N)nc2-c2[nH]nc(C(=O)Nc3cccc(CC(=O)N4CCC(N5CCCCC5)CC4)c3)c21 [compound 120]
[1]
  IC50: 19 nM
[2]
  IC50: 913 nM

## CNc1ncc2c(n1)-c1[nH]nc(C(=O)Nc3nc(CC(=O)N4CCC(N5CCCCC5)CC4)cs3)c1C(C)(C)C2 [compound 121]
[1]
  IC50: 18 nM
[2]
  IC50: > 10000 nM

## CNc1ncc2c(n1)-c1[nH]nc(C(=O)Nc3nc(CC(=O)N4CCC(N5CCC(C)CC5)CC4)cs3)c1C(C)(C)C2 [compound 122]
[1]
  IC50: 11 nM
[2]
  IC50: > 10000 nM

## CC1CCN(C2CCN(C(=O)Cc3csc(N(C)C(=O)c4n[nH]c5c4C(C)(C)Cc4cnc(N)nc4-5)n3)CC2)CC1 [compound 123]
[1]
  IC50: 53 nM
[2]
  IC50: > 10000 nM

## CN(C(=O)c1nn(C)c2c1C(C)(C)Cc1cnc(N)nc1-2)c1nc(CC(=O)N2CCC(N3CCCCC3)CC2)cs1 [compound 124]
[1]
  IC50: 187 nM
[2]
  IC50: > 10000 nM

## CC1(C)Cc2cnc(N)nc2-c2[nH]nc(C(=O)Nc3ccc(CNc4ccc(CN5CCC(N6CCCCC6)CC5)cc4)cc3)c21 [compound 126]
[1]
  IC50: 3 nM
[2]
  IC50: 592 nM

## COC(=O)C1(c2csc(NC(=O)c3n[nH]c4c3C(C)(C)Cc3cnc(N)nc3-4)n2)CC1 [compound 127]
[1]
  IC50: 617 nM
[2]
  IC50: > 10000 nM

## Cn1nc(C(=O)Nc2ccc(CN3CCC(N4CCCCC4)CC3)cc2)c2c1-c1nc(N)ncc1CC2(C)C [compound 128]
[1]
  IC50: 126 nM
[2]
  IC50: > 10000 nM

## CC1(C)Cc2cnc(N)nc2-c2[nH]nc(C(=O)Nc3nc(C4(C(=O)O)CC4)cs3)c21 [compound 129]
[1]
  IC50: 220 nM
[2]
  IC50: > 10000 nM

## CN(C)[C@@H]1CCN(C(=O)C2(c3csc(NC(=O)c4n[nH]c5c4C(C)(C)Cc4cnc(N)nc4-5)n3)CC2)C1 [compound 130]
[1]
  IC50: 534 nM
[2]
  IC50: > 10000 nM

## CC1(C)Cc2cnc(N)nc2-c2[nH]nc(C(=O)Nc3nc(C4(C(=O)N5CCC(N6CCCCC6)CC5)CC4)cs3)c21 [compound 131]
[1]
  IC50: 233 nM
[2]
  IC50: 3940 nM

## CC(C)(C)OC(=O)NC1CCN(Cc2ccc(NC(=O)c3n[nH]c4c3C(C)(C)Cc3cnc(N)nc3-4)cc2)CC1 [compound 133]
[1]
  IC50: 536 nM
[2]
  IC50: 1440 nM

## Cn1nc(C(=O)Nc2nc(CN3CCC(N4CCCCC4)CC3)cs2)c2c1-c1nc(N)ncc1CC2(C)C [compound 141]
[1]
  IC50: 622 nM
[2]
  IC50: > 10000 nM

## CN(C)[C@@H]1CCN(C(=O)Cc2cccc(NC(=O)c3n[nH]c4c3C(C)(C)Cc3cnc(N)nc3-4)c2)C1 [compound 142]
[1]
  IC50: 110 nM
[2]
  IC50: 671 nM

## CC1(C)Cc2cnc(N)nc2-c2[nH]nc(C(=O)Nc3nc(CN4CCC(N5CCCCC5)CC4)cs3)c21 [compound 143]
[1]
  IC50: 142 nM
[2]
  IC50: 2160 nM

## CC1(C)Cc2cnc(N)nc2-c2[nH]nc(C(=O)Nc3ncc[nH]3)c21 [compound 144]
[1]
  IC50: 546 nM
[2]
  IC50: 688 nM

## CC1(C)Cc2cnc(N)nc2-c2[nH]nc(C(=O)Nc3nc(CC(=O)NC4CCN(C5CCCCC5)CC4)cs3)c21 [compound 145]
[1]
  IC50: 11 nM
[2]
  IC50: 928 nM

## CN(C)C1CCN(C(=O)Cc2cccc(NC(=O)c3n[nH]c4c3C(C)(C)Cc3cnc(N)nc3-4)c2)CC1 [compound 146]
[1]
  IC50: 65 nM
[2]
  IC50: 551 nM

## CN(C)[C@@H]1CCN(Cc2csc(NC(=O)c3nn(C)c4c3C(C)(C)Cc3cnc(N)nc3-4)n2)C1 [compound 147]
[1]
  IC50: 594 nM
[2]
  IC50: > 10000 nM

## CN(C)[C@@H]1CCN(Cc2csc(NC(=O)c3n[nH]c4c3C(C)(C)Cc3cnc(N)nc3-4)n2)C1 [compound 148]
[1]
  IC50: 357 nM
[2]
  IC50: 1100 nM

## CC1(C)Cc2cnc(N)nc2-c2[nH]nc(C(=O)Nc3cccc(CC(=O)N4CCC(N)CC4)c3)c21 [compound 149]
[1]
  IC50: 164 nM
[2]
  IC50: 3210 nM

## CC1(C)Cc2cnc(N)nc2-c2[nH]nc(C(=O)Nc3nc(CC(=O)N4CCN(C5CCCCC5)CC4)cs3)c21 [compound 150]
[1]
  IC50: 6 nM
[2]
  IC50: 352 nM

## CN1CCc2nc(NC(=O)c3n[nH]c4c3C(C)(C)Cc3cnc(N)nc3-4)sc2C1 [compound 151]
[1]
  IC50: 174 nM
[2]
  IC50: 5340 nM

## CC1(C)Cc2cnc(N)nc2-c2[nH]nc(C(=O)Nc3nc(CN4CCC(N)CC4)cs3)c21 [compound 152]
[1]
  IC50: 534 nM
[2]
  IC50: > 10000 nM

## CC1(C)Cc2cnc(N)nc2-c2[nH]nc(C(=O)Nc3nc(CC(=O)N4CC[C@@H]([N+](C)(C)[O-])C4)cs3)c21 [compound 154]
[1]
  IC50: 14 nM
[2]
  IC50: 564 nM

## Cc1csc(NC(=O)c2nn(C)c3c2C(C)(C)Cc2cnc(N)nc2-3)n1 [compound 155]
[1]
  IC50: 629 nM
[2]
  IC50: > 10000 nM

## CC1(C)Cc2cnc(N)nc2-c2[nH]nc(C(=O)Nc3nc(CNC4CCN(C5CCCCC5)CC4)cs3)c21 [compound 156]
[1]
  IC50: 3 nM
[2]
  IC50: 249 nM

## CC1(C)Cc2cnc(N)nc2-c2[nH]nc(C(=O)Nc3nc(COC4CCN(C5CCCCC5)CC4)cs3)c21 [compound 157]
[1]
  IC50: 6 nM
[2]
  IC50: 292 nM

## CC1(C)Cc2cnc(N)nc2-c2[nH]nc(C(=O)Nc3nc(CC(=O)N4CCN(c5ccccc5)CC4)cs3)c21 [compound 160]
[1]
  IC50: 25 nM
[2]
  IC50: 2210 nM

## CC1(C)Cc2cnc(N)nc2-c2[nH]nc(C(=O)N3CCN(c4ccccc4)CC3)c21 [compound 161]
[1]
  IC50: 507 nM
[2]
  IC50: > 10000 nM

## CC1(C)Cc2cnc(N)nc2-c2[nH]nc(C(=O)NCc3ccc(C(=O)N4CCC(N5CCCCC5)CC4)cc3)c21 [compound 165]
[1]
  IC50: 180 nM
[2]
  IC50: 69 nM

## CN1CCC(NC(=O)c2ccc(CNC(=O)c3n[nH]c4c3C(C)(C)Cc3cnc(N)nc3-4)cc2)CC1 [compound 166]
[1]
  IC50: 136 nM
[2]
  IC50: 134 nM
